Emax data for one compound are collected here from publication PMC12820429, “Modulating food intake by nasal application of peptides targeting melanocortin 4 receptor and ghrelin receptor systems” (Brain Communications, 2026).

This assay concerns the target T1, MC4R (Homo sapiens, UniProt P32245).
T1 construct: expressed in transfected cells; host or cells: HEK293 (transient transfection, pcDNA3_MC4R plus CRE-luciferase reporter pGL4.29)
Kind of assay: cAMP reporter gene assay. Type of assay: cell-based. Particulars: normalized to maximal setmelanotide response; n ≥ 2.

T1 sequence (P32245 whole entry, species assumed): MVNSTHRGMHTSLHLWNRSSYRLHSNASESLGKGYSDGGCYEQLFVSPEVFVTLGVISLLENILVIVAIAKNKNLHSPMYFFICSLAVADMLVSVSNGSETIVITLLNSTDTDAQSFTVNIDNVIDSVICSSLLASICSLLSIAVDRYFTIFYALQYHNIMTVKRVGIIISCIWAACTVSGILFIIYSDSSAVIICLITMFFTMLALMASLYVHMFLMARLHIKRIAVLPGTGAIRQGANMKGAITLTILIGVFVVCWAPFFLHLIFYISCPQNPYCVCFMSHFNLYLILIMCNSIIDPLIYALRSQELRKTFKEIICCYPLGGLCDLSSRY
Experimental: HEK293 cells were cultured under standard conditions.[33] Cyclic adenosine monophosphate (cAMP) reporter gene assay was carried out with HEK293 cells transiently transfected with pGL4.29[luc2P/CRE/Hygro] (Promega, Madison, WI, USA) and pcDNA3_MC4R plasmids. For transfection, a master mix consisting of 0.6 µL Lipofectamine (Invitrogen by Thermo Fisher) per 25 µL Opti-MEM (Gibco, Grand Island, NY, USA) per well was preincubated at room temperature for 5 min and then gently mixed with 0.125 µg of both plasmids per 25 µL Opti-MEM per well and incubated for 30 min at room temperature. […] Two hundred microlitres of the mixture was added per well to a white 96-well plate (Greiner Bio-One International GmbH, Kremsmünster, Austria), previously coated with 0.1 mg/mL poly-D-lysine (Sigma-Aldrich) in Dulbecco’s phosphate-buffered saline (DPBS) for 1 h at room temperature. Cells were incubated overnight at humidified atmosphere (37°C, 5% CO2). […] The medium was removed, and cells were starved in 50 μL of DMEM/F12 (1:1) without FBS at humidified atmosphere for 1 h. One millimolar peptide stocks in dimethyl sulfoxide (DMSO, Sigma-Aldrich) were diluted in DMEM/F12 (1:1) to desired concentrations. […] The plate was transferred to a plate reader (Infinite M200, Tecan Trading AG, Männedorf, Switzerland), briefly shaken and incubated 5 min at room temperature. […]

In turn, `CC(=O)N[C@@H](CCCNC(=N)N)C(=O)N[C@H]1CSSC[C@@H](C(N)=O)NC(=O)[C@H](Cc2c[nH]c3ccccc23)NC(=O)[C@H](CCCNC(=N)N)NC(=O)[C@@H](Cc2ccccc2)NC(=O)[C@H](Cc2c[nH]cn2)NC(=O)[C@@H](C)NC1=O` [peptide 1.1, Ac-R^bCaHfRW^bC-NH2] displayed an Emax of 100 ± 4%.
